Data: patent US20230127498A1, “TREATMENT OF RESPIRATORY DISORDERS” (Terns, Inc., priority 2020, published 2023)
Structures can show the parent of a compound that is named as a salt. Where two headings read alike, the source gives them in different places.

What was measured:
[1] = mouse, in vivo; cited from earlier work
[2] = in vivo; cited from earlier work
[3] = cited from earlier work
rhinovirus = settings: mice sensitized with HDM, challenged with HDM and rhinovirus; cited from earlier work
SSAO = target: T1, SSAO (Homo sapiens, UniProt Q16853); assay: Single-ascending dose clinical trial: plasma SSAO activity (H2O2 generation); type: in vivo
T1 construct: from tissue; host or cells: human plasma (healthy volunteers)
T1 sequence (Q16853 27-763 limits assumed): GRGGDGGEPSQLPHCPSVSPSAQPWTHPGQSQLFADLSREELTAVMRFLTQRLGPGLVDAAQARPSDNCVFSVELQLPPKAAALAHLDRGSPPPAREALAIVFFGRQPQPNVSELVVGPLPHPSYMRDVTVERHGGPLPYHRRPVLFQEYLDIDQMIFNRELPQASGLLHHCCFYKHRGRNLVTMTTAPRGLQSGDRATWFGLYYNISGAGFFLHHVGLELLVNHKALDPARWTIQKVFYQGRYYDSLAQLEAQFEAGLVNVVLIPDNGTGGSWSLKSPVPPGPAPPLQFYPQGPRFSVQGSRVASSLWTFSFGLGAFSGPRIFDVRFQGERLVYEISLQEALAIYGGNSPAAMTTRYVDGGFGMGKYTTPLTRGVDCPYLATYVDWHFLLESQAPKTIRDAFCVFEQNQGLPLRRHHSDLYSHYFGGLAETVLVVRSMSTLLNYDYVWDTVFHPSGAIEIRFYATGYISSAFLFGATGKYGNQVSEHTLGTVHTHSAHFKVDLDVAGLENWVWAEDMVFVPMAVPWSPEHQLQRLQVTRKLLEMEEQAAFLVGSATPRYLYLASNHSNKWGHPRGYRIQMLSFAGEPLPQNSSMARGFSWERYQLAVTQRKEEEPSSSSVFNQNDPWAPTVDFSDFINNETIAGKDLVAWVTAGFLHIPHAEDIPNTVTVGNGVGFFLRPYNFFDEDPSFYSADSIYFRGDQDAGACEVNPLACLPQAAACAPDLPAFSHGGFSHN
Procedure: (§1) Safety was assessed for 7 (±3) days after dosing.
(§2) Plasma PK parameters were determined by non-compartmental analysis.
SSAO-specific amine oxidase levels in plasma were determined using a kinetic-based assay essentially as described previously (Schilter et al). Endogenous monoamine oxidases A and B were inhibited by adding pargyline to plasma samples prior to measuring H2O2 generation levels in placebo and active recipients.

methylamine (MMA) = assay: Single-ascending dose clinical trial: plasma methylamine (MMA) levels; type: in vivo, human
Procedure: as §1

Rat model of NASH = settings: in vivo
[4] = tested on: Influenza A virus, WSN/33 strain of H1N1; settings: for Median survival time / Survival proportion / Prolonged survival time*: Formula 5 20 mg/kg QD, oseltamivir 5 mg/kg BID; for Prolonged survival time*: compared with vehicle group
[5] = human, in vivo
Procedure: as §1, §2

[6] = Single-ascending dose clinical trial: safety, adverse events; type: in vivo, human
Procedure: as §1

SMILES: NC/C(=C\F)COc1ccc(S(N)(=O)=O)cc1 [PXS-4681A]
- cytokine production [1]: reduced
- effects relative to dexamethasone treatment [1]: comparable
- leukocyte trafficking [1]: reduced

SMILES: CC(C)(C)NC(=O)c1ccc(OC/C(=C/F)CN)cc1.Cl [BI 1467335]
- airway infiltration of inflammatory immune cells [2]: suppressed
- lung function [2]: improved
- pulmonary fibrosis [2]: reduced
- cytokine-induced cell migration ([3]; by diminishing leukocyte rolling and adherence): reduced
- LPS-induced neutrophil lung migration ([3]; in vivo): reduced
- airway hyperreactivity (rhinovirus): reduced
- inflammatory cellular infiltrates (rhinovirus): reduced

SMILES: COC1CCN(c2ncc(OC/C(=C/F)CN)cn2)CC1 [Compound of Formula 5]
- inhibition of plasma SSAO activity at 4 hours post-dose (SSAO; all dose cohorts, single dose): near complete inhibition
- duration of suppression of plasma SSAO activity after a single dose (SSAO; single dose): up to 1 week
- plasma amine oxidase activity (SSAO; single doses, all subjects): rapidly and potently decreased
- duration of SSAO activity inhibition after a single dose (SSAO; single oral dose 1 mg to 10 mg): up to seven days
- plasma methylamine (methylamine (MMA); across the dose range, single dose): Dose-dependent increases
- duration of dose-dependent increases in plasma MMA (methylamine (MMA); after single doses): up to 1 week
- Maximum plasma MMA levels (methylamine (MMA); single dose): increased
- liver fibrosis (Rat model of NASH): decreases
- liver inflammation (Rat model of NASH): decreases
- Median survival time ([4]; […]): 6 days
- Survival proportion ([4]; […]): 0%
- Prolonged survival time* ([4]; […]): 20%
- exacerbation of viral replication or pathology ([4]; monotherapy or in combination with oseltamivir): did not appear to exacerbate
- Prolonged survival time* ([4]; prophylactic): 20%

SMILES: COC1CCN(c2ncc(OC/C(=C/F)CN)cn2)CC1 [toslyate salt of Formula 5]
- clearance from plasma [5]: rapidly cleared from plasma
- plasma PK exposure dose proportionality [5]: greater than dose proportional
- TEAE diagnosis and frequency: upper respiratory tract infection ([6]; All cohorts (n = 32)): 1 (3.1)
- TEAE diagnosis and frequency: upper respiratory tract infection ([6]; cohort 1, single oral dose 1 mg or placebo (n = 8)): 0
- TEAE diagnosis and frequency: upper respiratory tract infection ([6]; cohort 2, single oral dose 3 mg or placebo (n = 8)): 0
- TEAE diagnosis and frequency: upper respiratory tract infection ([6]; cohort 3, single oral dose 6 mg (n = 8)): 0
- TEAE diagnosis and frequency: upper respiratory tract infection ([6]; cohort 4, single oral dose 10 mg or placebo (n = 8)): 1 (12.5)
- Subject incidence of TEAEs considered possibly treatment-related ([6]; human, in vivo): 1 (3.1)
- Subject incidence of any TEAE ([6]; human, in vivo): 5 (15.6)
- TEAE diagnosis and frequency: constipation ([6]; human, in vivo): 1 (3.1)
- TEAE diagnosis and frequency: contact dermatitis ([6]; human, in vivo): 2 (6.3)
- TEAE diagnosis and frequency: dysgeusia ([6]; human, in vivo): 1 (3.1)
- TEAE diagnosis and frequency: headache ([6]; human, in vivo): 1 (3.1)
- TEAE diagnosis and frequency: sore throat ([6]; human, in vivo): 1 (3.1)
- TEAE diagnosis and frequency: oral herpes ([6]; human, in vivo, po): 1 (3.1)

SMILES: CCOC(=O)C1=C[C@@H](OC(CC)CC)[C@H](NC(C)=O)[C@@H](N)C1 [Oseltamivir, oseltamivir, reference compound]
- Median survival time ([4]; […]): undefined
- Survival proportion ([4]; […]): 100%
- Prolonged survival time* ([4]; […]): undefined
- Prolonged survival time* ([4]; prophylactic): undefined
